Measurements from ChEMBL document CHEMBL1146669, “The development of potent non-peptidic PTP-1B inhibitors” (Bioorg Med Chem Lett, 2004).
“And” between values parts separate entries of the source, which are not always exact repeats. Equal entries are not always repeated.

Columns and labels:
[1] = biological target: T1, Tyrosine-protein phosphatase non-receptor type 1 (Homo sapiens, UniProt P18031); assay: In vitro inhibitory activity against Protein tyrosine phosphatase 1B (PTP1B) over-expressed in intact Sf9 cell assay
T1 sequence (P18031 whole entry): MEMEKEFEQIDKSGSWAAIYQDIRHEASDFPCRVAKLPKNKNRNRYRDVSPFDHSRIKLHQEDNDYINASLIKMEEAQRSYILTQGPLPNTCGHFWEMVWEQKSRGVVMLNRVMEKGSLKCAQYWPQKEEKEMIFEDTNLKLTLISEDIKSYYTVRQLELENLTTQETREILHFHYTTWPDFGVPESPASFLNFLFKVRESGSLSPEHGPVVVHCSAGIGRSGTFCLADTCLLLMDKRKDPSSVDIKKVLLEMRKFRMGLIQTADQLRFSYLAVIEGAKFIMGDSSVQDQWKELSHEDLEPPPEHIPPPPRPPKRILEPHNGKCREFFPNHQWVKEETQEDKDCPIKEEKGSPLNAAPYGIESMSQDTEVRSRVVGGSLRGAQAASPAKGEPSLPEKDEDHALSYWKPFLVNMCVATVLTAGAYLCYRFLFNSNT

[2] = biological target: T2, Receptor-type tyrosine-protein phosphatase C (Homo sapiens, UniProt P08575); assay: In vitro inhibitory activity against CD45 protein-tyrosine phosphatase
T2 sequence (P08575 whole entry): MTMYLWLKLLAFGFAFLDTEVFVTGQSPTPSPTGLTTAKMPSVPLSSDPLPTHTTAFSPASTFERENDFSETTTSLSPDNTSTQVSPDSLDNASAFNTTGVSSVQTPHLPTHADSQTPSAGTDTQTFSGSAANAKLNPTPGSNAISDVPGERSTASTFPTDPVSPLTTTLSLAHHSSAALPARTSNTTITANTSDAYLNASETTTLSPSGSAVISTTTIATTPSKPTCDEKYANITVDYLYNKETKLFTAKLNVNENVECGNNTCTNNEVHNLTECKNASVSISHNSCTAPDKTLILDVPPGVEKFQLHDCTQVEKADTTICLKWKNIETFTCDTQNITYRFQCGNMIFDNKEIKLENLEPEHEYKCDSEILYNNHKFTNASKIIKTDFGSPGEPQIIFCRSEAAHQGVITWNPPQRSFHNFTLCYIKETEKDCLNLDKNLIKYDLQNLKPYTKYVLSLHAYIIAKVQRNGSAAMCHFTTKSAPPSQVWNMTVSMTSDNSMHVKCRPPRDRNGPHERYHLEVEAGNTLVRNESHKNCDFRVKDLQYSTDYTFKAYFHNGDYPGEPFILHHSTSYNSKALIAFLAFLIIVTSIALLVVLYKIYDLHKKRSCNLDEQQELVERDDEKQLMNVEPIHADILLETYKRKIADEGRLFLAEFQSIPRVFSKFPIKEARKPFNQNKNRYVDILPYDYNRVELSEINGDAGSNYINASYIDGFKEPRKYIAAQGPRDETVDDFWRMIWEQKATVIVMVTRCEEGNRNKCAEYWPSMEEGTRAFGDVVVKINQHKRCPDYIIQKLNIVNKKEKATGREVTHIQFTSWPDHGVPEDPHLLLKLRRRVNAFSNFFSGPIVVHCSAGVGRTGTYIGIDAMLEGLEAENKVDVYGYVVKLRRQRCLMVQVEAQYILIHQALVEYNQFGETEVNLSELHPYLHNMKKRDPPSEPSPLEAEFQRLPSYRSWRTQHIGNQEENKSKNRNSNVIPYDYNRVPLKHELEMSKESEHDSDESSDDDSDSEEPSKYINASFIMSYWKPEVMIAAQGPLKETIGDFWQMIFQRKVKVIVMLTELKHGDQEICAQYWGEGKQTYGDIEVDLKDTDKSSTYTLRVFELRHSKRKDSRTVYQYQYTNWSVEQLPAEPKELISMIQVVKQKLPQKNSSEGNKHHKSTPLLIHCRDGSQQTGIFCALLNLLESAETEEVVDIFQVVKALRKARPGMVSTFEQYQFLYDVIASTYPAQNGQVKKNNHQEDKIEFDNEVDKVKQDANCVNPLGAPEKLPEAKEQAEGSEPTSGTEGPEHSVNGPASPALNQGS

[3] = biological target: T1, Tyrosine-protein phosphatase non-receptor type 1; assay: In vitro inhibitory activity against protein tyrosine phosphatase 1B (PTP1B) was determined in fluorescein diphosphate (FDP) assay
[4] = In vitro inhibitory activity against Protein tyrosine phosphatase 1B (PTP1B) over-expressed in intact Sf9 cell assay; NA denotes not active
[5] = Oral bioavailability in rat; assay type: ADME, organism-based; settings: in vivo
[6] = Maximal concentration in rat was determined; assay type: ADME, organism-based; settings: in vivo
[7] = Half life in ob/ob mice; assay type: ADME, organism-based; settings: mouse, in vivo

IC50 [1] | IC50 [2] | IC50 [3] | IC50 [4] | half-life [7] | Compound | bioavailability [5] | Cmax [6]
7.2 µM | > 50 µM | 0.94 µM |  |  | CS(=O)(=O)c1ccc(CC(Cc2ccc(C(F)(F)P(=O)(O)O)cc2)(C(=O)OCc2ccccc2)C(=O)OCc2ccccc2)cc1 |  | 
2.4 µM | > 50 µM | 0.36 µM |  |  | O=C(c1ccccc1)C(Cc1ccc(C(F)(F)P(=O)(O)O)c(Cl)c1)c1ccccc1 (configuration not stated) |  | 
0.58 µM and 1.5 µM | > 50 µM | 0.06 µM and 0.19 µM |  |  | O=C(c1ccccc1)C(Cc1ccc(C(F)(F)P(=O)(O)O)cc1)(Cc1ccc(C(F)(F)P(=O)(O)O)cc1)c1ccccc1 |  | 
1.3 µM | > 50 µM | 0.16 µM |  |  | O=P(O)(O)C(F)(F)c1ccc(CC(Cc2ccc(C(F)(F)P(=O)(O)O)cc2)(OCc2ccccc2)OCc2ccccc2)cc1 |  | 
 | > 50 µM | 16 µM | Not Active |  | O=C(c1ccccc1)C(Cc1ccc(C(F)(F)P(=O)(O)O)c(-c2ccccc2)c1)c1ccccc1 (configuration not stated) |  | 
6.63 µM | > 50 µM | 0.8 µM |  |  | O=C(O)c1ccc(CC(Cc2ccc(C(F)(F)P(=O)(O)O)cc2)(C(=O)c2ccccc2)c2ccccc2)cc1 (configuration not stated) |  | 
0.54 µM | 19 µM | 0.06 µM |  |  | O=C(OCc1ccccc1)C(Cc1ccc(C(F)(F)P(=O)(O)O)cc1)(Cc1ccc(C(F)(F)P(=O)(O)O)cc1)C(=O)OCc1ccccc1 |  | 
1.7 µM | 25 µM | 0.09 µM |  |  | CC(=O)NS(=O)(=O)c1ccc(CC(Cc2ccc(C(F)(F)P(=O)(O)O)cc2)(C(=O)OCc2ccccc2)C(=O)OCc2ccccc2)cc1 |  | 
2 µM | 5.5 µM | 0.19 µM |  |  | O=C(c1ccccc1)C(C/C=C/c1ccccc1)(Cc1ccc(C(F)(F)P(=O)(O)O)cc1)c1ccccc1 (configuration not stated) |  | 
1.9 µM | > 50 µM | 0.04 µM |  |  | O=C(OCc1ccccc1)C(Cc1ccc(C(F)(F)C(=O)O)cc1)(Cc1ccc(C(F)(F)P(=O)(O)O)cc1)C(=O)OCc1ccccc1 |  | 
1.65 µM | > 50 µM | 0.11 µM |  |  | CC(C)OC(=O)C(Cc1ccc(C(F)(F)P(=O)(O)O)cc1)(Cc1ccc(C(F)(F)P(=O)(O)O)cc1)C(=O)OC(C)C |  | 
3.8 µM | > 50 µM | 0.39 µM |  |  | COC(=O)C(Cc1ccc(C(F)(F)P(=O)(O)O)cc1)(Cc1ccc(C(F)(F)P(=O)(O)O)cc1)C(=O)O |  | 
16 µM | > 50 µM | 2 µM |  |  | O=C(c1ccccc1)C(Cc1ccc(C(F)(F)P(=O)(O)O)cc1)c1ccccc1 (configuration not stated) |  | 
1 µM | > 50 µM | 0.19 µM |  | < 30 min | COC(=O)C(Cc1ccc(C(F)(F)P(=O)(O)O)cc1)(Cc1ccc(C(F)(F)P(=O)(O)O)cc1)C(=O)OCc1ccccc1 |  | 

Compound | IC50 [1] | IC50 [2] | IC50 [3] | IC50 [4] | half-life [7] | bioavailability [5] | Cmax [6]
O=C(c1ccccc1)C(Cc1ccc(C(F)(F)P(=O)(O)O)c(Br)c1)c1ccccc1 (configuration not stated) | 1.22 µM | > 50 µM |  |  |  | 13% | 35 µM
